According to US20160031985A1, “CHARGE-ENGINEERED ANTIBODIES OR COMPOSITIONS OF PENETRATION-ENHANCED TARGETING PROTEINS AND METHODS OF USE” (PERMEON BIOLOGICS, INC., priority 2013, published 2016):

B1: +2GFP-C6.5: fusion of +2GFP and C6.5; a or b variant not stated (protein)
scFv: QVQLLQSGAELKKPGESLKISCKGSGYSFTSYWIAWVRQMPGKGLEYMGLIYPGDSDTKYSPSFQGQVTISVDKSVSTAYLQWSSLKPSDSAVYFCARHDVGYCSSSNCAKWPEYFQHWGQGTLVTVSSGGGGSGGGGSGGGGSQSVLTQPPSVSAAPGQKVTISCSGSSSNIGNNYVSWYQQLPGTAPKLLIYGHTNRPAGVPDRFSGSKSGTSASLAISGFRSEDEADYYCAAWDDSLSGWVFGGGTKLTVLGGHGHHHHHH
modifications: left off: large carriers; small tags and cut ends

How the values were obtained:
Assay type in all cases: cell-based
[1] = tested on: MDA-MB-468 (Her2^−) cells; test: Internalization of GFP proteins by flow cytometry (Example 4); details: 1 μM protein, 2 hours, serum free media, untreated cells 4,064
Protocol: MDA-MB-468 cells express an insignificant level of Her2 compared to unstained background and are considered Her2 negative (referred to as Her2), whereas AU565 cells express a high level of Her2 (referred to as Her2^+).
The media were replaced with serum free media containing 1 μM of a protein listed below, and incubated for 2 hours. Cells were washed 3×PBS, trypsinized, fixed with 4% PFA, washed with PBS and then analyzed by flow cytometry with detection of GFP.
Results: Flow cytometry analysis is indicative of the amount of protein internalized into the cells. FIGS. 9A and 9B show the flow cytometry data obtained for different tested samples at various conditions. The median fluorescence values obtained from the flow cytometry peak minus the median fluorescence values of untreated cells (background fluorescence) are shown in FIGS. 10A and 10B. See also Table 7. The first column indicates identifies the GFP-component of the construct used for the particular sample treatment. The second and third columns represents fluorescence in MDA-MB-468 cells following treatment with each of the GFP proteins alone (second column; examples of use of CPMs alone) or with each of the GFP-C6.5 fusion proteins (third column; examples of fusion proteins comprising a target-binding region and a CPM region). The fourth and fifth column fluorescence in AU565 cells following treatment with each of the GFP proteins alone (fourth column; examples of use of CPMs alone) or with each of the GFP-C6.5 fusion proteins (fifth column; examples of fusion proteins comprising a target-binding region and a CPM region).

[2] = tested on: MDA-MB-468 (Her2^−) cells; test: Cellular uptake in mixed cell populations, flow cytometry with Her2 Ab-APC gating (Example 5); details: 2 h, mixed cell population; for Median Fluorescence Values, first set: MDA-MB-468 cells (Her2−), untreated 4,303; for Median Fluorescence Values, second set: Her2− (MDA-MB-468), untreated 4,776
Protocol: (§1) The media were replaced with serum free media containing indicated concentrations of protein listed below and incubated for 2 h. Cells were washed 3×PBS, trypsinized, fixed with 4% PFA, stained with Her2 Ab-APC for 0.5 hour, washed with PBS and then analyzed by flow cytometry with detection of GFP.
(§2) The tested proteins of the first and second sets of experiments were applied to the mixed cell population for two hours.
(§3) The above data were also plotted in FIGS. 13A-13H to show the median fluorescence value minus background fluorescence of untreated cells (background adjusted fluorescence) (Y-axis) as a function of concentration (X-axis) for each of the tested proteins in this Example. Cellular uptake of the proteins was measured by GFP fluorescence. Her2 expression level was measured by using a Her2 antibody conjugated with allophycocyanin (APC). Gating was applied to the flow cytometry data to identify Her2^low versus Her2^high populations. […] The Her2^− profiles (diamond) are indicative of the profile of charged GFP alone. The Her2^− profiles (square) are indicative of the profile of the charged GFP in combination with the target-binding region—C6.5 scFv. The data of sfGFP-C6.5 on the Her2^high cells reflects the profile of the target-binding region (C6.5) by itself.

AU565 (Her2^+) cells [3] = test: as above; details: 2 h, mixed cell population; for Median Fluorescence Values, first set: AU565 cells (Her2+), untreated 6,875; for Median Fluorescence Values, second set: Her2+ (AU565), untreated 11,162
Protocol: as §1, §2, §3

AU565 (Her2^+) cells [4] = test: Internalization of GFP proteins by flow cytometry (Example 4); details: 1 μM protein, 2 hours, serum free media, untreated cells 5,713
Protocol: The levels of Her2 expressed on cell surface were measured in flow cytometry after staining the cells with a commercial antibody against Her2, Anti-Her2-APC (BD Bioscience, catalog #340554). MDA-MB-468 cells express an insignificant level of Her2 compared to unstained background and are considered Her2 negative (referred to as Her2), whereas AU565 cells express a high level of Her2 (referred to as Her2^+).
Results: Flow cytometry analysis is indicative of the amount of protein internalized into the cells. […] The median fluorescence values obtained from the flow cytometry peak minus the median fluorescence values of untreated cells (background fluorescence) are shown in FIGS. 10A and 10B.

[5] = tested on: MDA-MB-468 (Her2^−) cells; test: Time course of cellular uptake in mixed cell populations, flow cytometry (Example 6); details: Her2− (MDA-MB-468), 0.1 μM, untreated 4,134
Protocol: (§4) The media were replaced with serum free media containing 0.1 μM of protein listed below and incubated for 10 minutes, 30 minutes or 4 hours. Cells were washed 3×PBS, trypsinized, stained with Her2 Antibody-APC for 0.5 hours, washed with PBS and then analyzed by flow cytometry with detection of GFP.

AU565 (Her2^+) cells [6] = test: as above; details: 0.1 μM, untreated 6,081
Protocol: as §4

SKOV-3 cells (Her2^+) = test: Cellular uptake of GFP proteins by fluorescence microscopy; details: 1 μM of proteins, 1 hour
Protocol: These images were taken to assess cellular uptake of these GFP-containing proteins by fluorescence microscopy. The images shown are an overlay of phase contrast and GFP fluorescence images.
In addition, SKOV-3 cells (Her2) were treated with 1 μM of proteins for 1 hour, and then images were taken to assess cellular uptake of GFP proteins by fluorescence microscopy (FIG. 11A).

Molecule | Median fluorescence (GFP, flow cytometry) [1] | Median Fluorescence Values, first set ([2]; 0.03 uM) | Median Fluorescence Values, first set ([2]; 0.1 uM) | Median Fluorescence Values, first set ([2]; 0.3 uM) | Median Fluorescence Values, first set ([2]; 1 uM) | Median Fluorescence Values, first set (AU565 (Her2^+) cells [3]; 0.03 uM) | Median Fluorescence Values, first set (AU565 (Her2^+) cells [3]; 0.1 uM) | Median Fluorescence Values, first set (AU565 (Her2^+) cells [3]; 0.3 uM) | Median Fluorescence Values, first set (AU565 (Her2^+) cells [3]; 1 uM) | Median fluorescence (GFP, flow cytometry) (AU565 (Her2^+) cells [4]) | Internalization over time (GFP fluorescence, flow cytometry) ([5]; 10 min) | Internalization over time (GFP fluorescence, flow cytometry) ([5]; 30 min) | Internalization over time (GFP fluorescence, flow cytometry) ([5]; 4 h) | Internalization over time (GFP fluorescence, flow cytometry) (AU565 (Her2^+) cells [6]; 10 min) | Internalization over time (GFP fluorescence, flow cytometry) (AU565 (Her2^+) cells [6]; 30 min) | Internalization over time (GFP fluorescence, flow cytometry) (AU565 (Her2^+) cells [6]; 4 h) | binding and cellular uptake by fluorescence microscopy (SKOV-3 cells (Her2^+)) | Median Fluorescence Values, second set ([2]; 0.1 uM) | Median Fluorescence Values, second set ([2]; 0.3 uM) | also measured
+15GFP-C6.5: fusion of +15GFP (CPM) and anti-Her2 scFv C6.5 via (S4G)6 spacer; SEQ ID NO: 14 | 313,629 | 13,012 | 36,343 | 76,116 | 155,734 | 37,663 | 74,673 | 128,374 | 180,065 | 413,838 | 10,665 | 22,262 | 144,923 | 18,606 | 35,981 | 148,261 |  |  |  | 
C6.5-+15GFP: fusion with C6.5 N-terminal to +15GFP; SEQ ID NO: 16 | 767,627 | 13,355 | 36,070 | 82,571 | 306,260 | 75,821 | 162,337 | 305,944 | 822,351 | 2,170,916 | 13,517 | 17,194 | 96,599 | 37,044 | 61,007 | 184,844 | internalized efficiently in the cells |  |  | 
sfGFP-C6.5: control fusion of sfGFP and anti-Her2 scFv C6.5, not positively charged; SEQ ID NO: 13 [reference compound] | 5,632 |  |  |  |  |  |  |  |  |  | 4,081 | 3,986 | 4,704 |  |  |  |  | 4,824 | 4,947 | Median Fluorescence Values, second set ([2]; 0.03 uM): 4,460
sfGFP: superfolder GFP with His6 tag, not positively charged; SEQ ID NO: 10 [reference compound] | 5,115 |  |  |  |  |  |  |  |  | 5,896 | 3,887 | 4,025 | 4,067 | 5,952 | 6,024 | 5,924 |  | 4,519 | 5,245 | Median Fluorescence Values, second set (AU565 (Her2^+) cells [3]; 0.1 uM): 10,937; Median Fluorescence Values, second set (AU565 (Her2^+) cells [3]; 0.3 uM): 12,131
B1 |  |  |  |  |  |  |  |  |  |  |  |  |  |  |  |  | bound to SKOV-3 cells through Her2 but did not internalize in the cells |  |  | 
